This passage reports Kd and EC50 results from ChEMBL document CHEMBL1140182, “Modeling binding modes of alpha7 nicotinic acetylcholine receptor with ligands: the roles of Gln117 and other residues of the receptor in agonist binding” (J Med Chem, 2008).

Molecules are shown by their SMILES. pEC50, pKd: −log10 of the molar value.

Assay [1] deals with T1, Neuronal acetylcholine receptor subunit alpha-7 (Homo sapiens, UniProt P36544). Briefly: Displacement of [125I]alpha-bungarotoxin from alpha7 nAChR. (In general: In a radioligand displacement assay an active substance lowers the binding of a labelled ligand.)
T1 sequence (P36544 whole entry): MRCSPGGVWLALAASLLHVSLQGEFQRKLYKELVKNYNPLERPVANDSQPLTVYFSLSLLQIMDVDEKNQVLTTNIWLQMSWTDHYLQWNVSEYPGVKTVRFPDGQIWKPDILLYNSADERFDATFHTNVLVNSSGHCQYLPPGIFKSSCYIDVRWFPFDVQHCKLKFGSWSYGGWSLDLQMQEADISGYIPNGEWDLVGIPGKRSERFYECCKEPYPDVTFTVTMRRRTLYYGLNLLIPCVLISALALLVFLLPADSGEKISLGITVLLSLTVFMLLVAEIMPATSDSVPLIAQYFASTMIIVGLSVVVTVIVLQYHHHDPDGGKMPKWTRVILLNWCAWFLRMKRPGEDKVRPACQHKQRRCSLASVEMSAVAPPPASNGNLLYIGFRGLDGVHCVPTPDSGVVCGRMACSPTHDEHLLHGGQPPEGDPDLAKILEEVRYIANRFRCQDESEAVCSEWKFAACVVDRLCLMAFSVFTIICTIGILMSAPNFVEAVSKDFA
The nature of assay [2]: Agonist activity at human cloned alpha7 nAChR Gln117Phe mutant expressed in Xenopus laevis oocytes assessed as channel opening by voltage clamp electrophysiology. In kind it is functional, cell-based. The following applies: Oocyte.
In assay [3] the target is T1, Neuronal acetylcholine receptor subunit alpha-7. Briefly: Agonist activity at human cloned wild-type alpha7 nAChR expressed in Xenopus laevis oocytes assessed as channel opening by voltage clamp electrophysiology. The assay is classed as functional, cell-based, Oocyte.

By pKd is commonly meant the negative decadic logarithm of the Kd, by convention in mol/L. The low end stands for a high Kd, the high end for a low Kd. A word on the pEC50: it is −log10 of the EC50, conventionally taken in molar units. Consider `O=C1NC[C@@]2(CN3CCC2CC3)O1`, for which, in assay [1], the pKd was 7.04. The results for the pEC50 in assay [2] and in assay [3] were 4.65 and 5.44, respectively.

For the molecule `CCN1C[C@@]2(CN3CCC2CC3)OC1=O`, the negative logarithm of the Kd (pKd) in assay [1] was 6.16.

In the case of `COc1ccc(/C=C2\CCCN=C2c2cccnc2)c(OC)c1` [GTS-21], the pKd in assay [1] was 6.80.
